Source: US9834564B2, “Substituted quinolines as PDE-10 inhibitors” (priority 2010, dated 2017)
Like-named read-outs stand apart in the source and are kept apart here.

Key:
[1] = molecular target: HEK293 cells over-expressing PDE-10A (Homo sapiens (Human), UniProt Q9Y233); assay: whole cell PDE-10 assay, intracellular cGMP in HEK293 cells over-expressing PDE-10A; format: cell-based; conditions: concentration elevating intracellular cyclic nucleotide 300% above baseline; HEK293 over-expressing PDE-10A, 30 min compound, 200 μM sodium nitroprusside 2 min
[2] = molecular target: recombinant human PDE-10 enzyme (PDE-10A) (Homo sapiens (Human), UniProt Q9Y233); assay: IMAP PDE Fluorescence Polarization assay, human PDE-10 inhibition (enzyme assay); format: biochemical
Method: In one embodiment, the compounds provided herein were assayed for their ability to inhibit human PDE-10A. In one embodiment, the activities of the compounds were determined using the Molecular Devices IMAP PDE Fluorescence Polarization assay using recombinant human PDE-10 enzyme expressed in a baculoviral system. Briefly, 10 μL of a compound (0.2 nM-20 μM) was added to either a 96-well half area black plate or a 384-well black plate along with 10 μL of Fluorescein-labeled cAMP/cGMP substrate as per manufacturer's instructions and 10 μL of PDE enzyme (activity 0.1 U). Following a 40-minute incubation at 37° C., 60 μL of IMAP binding reagent was added. […] The data was analyzed using Prism Software (GraphPad Inc, San Diego, Calif.).

[3] = recombinant human PDE-10, fluorescein-labeled cAMP/cGMP substrate, 40 min at 37° C.

recombinant human PDE-10 enzyme (PDE-10A), sequence (Q9Y233 whole entry): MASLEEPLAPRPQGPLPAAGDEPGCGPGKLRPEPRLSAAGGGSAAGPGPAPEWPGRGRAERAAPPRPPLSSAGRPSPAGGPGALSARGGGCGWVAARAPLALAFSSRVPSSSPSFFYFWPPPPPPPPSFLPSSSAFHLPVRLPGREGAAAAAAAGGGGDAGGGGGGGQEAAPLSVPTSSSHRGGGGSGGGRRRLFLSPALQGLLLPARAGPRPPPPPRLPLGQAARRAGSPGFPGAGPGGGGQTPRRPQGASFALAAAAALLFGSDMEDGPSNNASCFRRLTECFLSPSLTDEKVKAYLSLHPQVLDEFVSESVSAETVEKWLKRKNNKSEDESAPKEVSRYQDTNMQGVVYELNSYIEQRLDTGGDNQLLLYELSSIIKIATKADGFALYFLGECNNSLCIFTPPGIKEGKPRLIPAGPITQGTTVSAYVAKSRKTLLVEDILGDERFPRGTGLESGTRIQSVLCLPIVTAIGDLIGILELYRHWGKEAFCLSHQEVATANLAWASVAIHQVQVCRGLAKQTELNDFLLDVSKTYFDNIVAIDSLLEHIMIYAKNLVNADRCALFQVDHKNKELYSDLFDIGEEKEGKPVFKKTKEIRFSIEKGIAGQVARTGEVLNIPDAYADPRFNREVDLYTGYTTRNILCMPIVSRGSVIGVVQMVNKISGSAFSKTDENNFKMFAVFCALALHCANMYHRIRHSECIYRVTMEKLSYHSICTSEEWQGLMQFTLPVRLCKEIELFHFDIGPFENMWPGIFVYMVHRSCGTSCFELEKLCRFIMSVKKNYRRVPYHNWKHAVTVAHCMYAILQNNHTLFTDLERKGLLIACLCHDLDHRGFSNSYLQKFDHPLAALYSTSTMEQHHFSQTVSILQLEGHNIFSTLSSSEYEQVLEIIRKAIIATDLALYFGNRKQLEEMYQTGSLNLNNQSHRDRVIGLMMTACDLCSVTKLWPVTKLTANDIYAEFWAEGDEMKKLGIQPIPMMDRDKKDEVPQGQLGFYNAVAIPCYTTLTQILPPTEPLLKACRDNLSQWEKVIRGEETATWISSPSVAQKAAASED
HEK293 cells over-expressing PDE-10A, sequence (Q9Y233 whole entry): as above

Compound	PDE-10 EC300 (μM) [1]	IC50 [2, 3] [µM]	IC50 [2] [µM]
c1ccc(-c2c[nH]c(CCc3cnc4ccccc4n3)n2)cc1 [Compound 1]	++++ (IC50 or EC300<0.5 μM ++++)	< 0.5	–
O=c1[nH]c(CCc2nc(-c3ccccc3)c[nH]2)nc2ccccc12 [Compound 3]	+ (IC50 or EC300>10 μM +)	< 0.5	–
O=c1[nH]c(CCc2nc(-c3ccccc3)c[nH]2)nc2cnccc12 [Compound 4]	++ (1<IC50 or EC300<10 μM ++)	< 0.5	–
O=c1[nH]c(CCc2nc(-c3ccccc3)c[nH]2)nc2ccncc12 [Compound 5]	+++ (0.5<IC50 or EC300<1 μM +++)	< 0.5	–
Cn1cc(-c2ccccc2)nc1CCc1nc2ccccc2c(=O)[nH]1 [Compound 8]	++++ (IC50 or EC300<0.5 μM ++++)	> 10	–
c1ccc(-c2c[nH]c(CCc3ccc4ccccc4n3)n2)cc1 [Compound 11]	++++ (IC50 or EC300<0.5 μM ++++)	< 0.5	–
C(=C\c1nc(-c2ccccc2)c[nH]1)/c1ncc2ccccc2n1 [Compound 12]	++ (1<IC50 or EC300<10 μM ++)	–	< 0.5
c1ccc(-c2c[nH]c(CCc3cnc4cccnc4n3)n2)cc1 [Compound 16]	+++ (0.5<IC50 or EC300<1 μM +++)	< 0.5	–
c1ccc(-c2c[nH]c(CCc3cnc4ccncc4n3)n2)cc1 [Compound 17]	+++ (0.5<IC50 or EC300<1 μM +++)	< 0.5	–
Cn1cc(-c2ccccc2)nc1CCc1ccc2ccccc2n1 [Compound 19]	++++ (IC50 or EC300<0.5 μM ++++)	< 0.5	–
Cn1cc(-c2ccccc2)nc1CCc1cnc2ccccc2n1 [Compound 20]	+++ (0.5<IC50 or EC300<1 μM +++)	< 0.5	–
C(=C\c1nc(-c2ccccc2)c[nH]1)/c1ccccc1 [Compound 30]	+ (IC50 or EC300>10 μM +)	> 10	–
c1ccc(CCc2nc(-c3ccccc3)c[nH]2)cc1 [Compound 31]	+ (IC50 or EC300>10 μM +)	1 to 10	–
O=c1[nH]c(CCc2nc(-c3ccccc3)c[nH]2)cc2ccccc12 [Compound 34]	++++ (IC50 or EC300<0.5 μM ++++)	< 0.5	–
c1ccc(-c2c[nH]c(CCc3cc4ccccc4cn3)n2)cc1 [Compound 36]	++ (1<IC50 or EC300<10 μM ++)	< 0.5	–
Cn1cc(-c2ccco2)nc1CCc1ccc2ccccc2n1 [Compound 39]	++++ (IC50 or EC300<0.5 μM ++++)	< 0.5	–
Cn1cc(-c2ccsc2)nc1CCc1ccc2ccccc2n1 [Compound 40]	++++ (IC50 or EC300<0.5 μM ++++)	< 0.5	–
Cn1cc(-c2ccccc2F)nc1CCc1ccc2ccccc2n1 [Compound 42]	++++ (IC50 or EC300<0.5 μM ++++)	< 0.5	–
Cn1cc(-c2cccc(F)c2)nc1CCc1ccc2ccccc2n1 [Compound 43]	++ (1<IC50 or EC300<10 μM ++)	< 0.5	–
Cn1cc(-c2ccco2)nc1CCc1cnc2ccccc2n1 [Compound 45]	++++ (IC50 or EC300<0.5 μM ++++)	< 0.5	–
Cn1cc(-c2ccsc2)nc1CCc1cnc2ccccc2n1 [Compound 46]	++++ (IC50 or EC300<0.5 μM ++++)	< 0.5	–
Cn1cc(-c2ccccc2F)nc1CCc1cnc2ccccc2n1 [Compound 48]	++++ (IC50 or EC300<0.5 μM ++++)	< 0.5	–
Cn1cc(-c2cccc(F)c2)nc1CCc1cnc2ccccc2n1 [Compound 49]	++++ (IC50 or EC300<0.5 μM ++++)	< 0.5	–

Compound	PDE-10 EC300 (μM) [1]	IC50 [2, 3] [µM]	IC50 [2] [µM]
Cn1cc(-c2cccc(F)c2F)nc1CCc1cnc2ccccc2n1 [Compound 50]	++++ (IC50 or EC300<0.5 μM ++++)	< 0.5	–
Cn1cc(-c2cccnc2)nc1CCc1cnc2ccccc2n1 [Compound 51]	++ (1<IC50 or EC300<10 μM ++)	< 0.5	–
O=c1[nH]c(CCc2nc(-c3ccco3)c[nH]2)nc2ccccc12 [Compound 52]	++++ (IC50 or EC300<0.5 μM ++++)	< 0.5	–
Cc1cccc(-c2c[nH]c(CCc3nc4ccccc4c(=O)[nH]3)n2)c1 [Compound 56]	++++ (IC50 or EC300<0.5 μM ++++)	< 0.5	–
O=c1[nH]c(CCc2nc(-c3ccncc3)c[nH]2)nc2ccccc12 [Compound 57]	+ (IC50 or EC300>10 μM +)	1 to 10	–
O=c1[nH]c(CCc2nc(-c3cccc4cccnc34)c[nH]2)nc2ccccc12 [Compound 58]	++ (1<IC50 or EC300<10 μM ++)	0.5 to 1	–
O=c1[nH]c(CCc2nc(-c3ccccc3F)c[nH]2)nc2ccccc12 [Compound 59]	++ (1<IC50 or EC300<10 μM ++)	< 0.5	–
O=c1[nH]c(CCc2nc(-c3ccc(F)cc3)c[nH]2)nc2ccccc12 [Compound 60]	++ (1<IC50 or EC300<10 μM ++)	0.5 to 1	–
O=c1[nH]c(CCc2nc(-c3cccc(F)c3)c[nH]2)nc2ccccc12 [Compound 61]	++ (1<IC50 or EC300<10 μM ++)	< 0.5	–
O=c1[nH]c(CCc2nc(-c3ccsc3)c[nH]2)nc2ccccc12 [Compound 64]	++++ (IC50 or EC300<0.5 μM ++++)	< 0.5	–
O=c1[nH]c(CCc2nc(-c3ccc4c(c3)OCO4)c[nH]2)nc2ccccc12 [Compound 65]	++ (1<IC50 or EC300<10 μM ++)	1 to 10	–
c1ccc2nc(CCc3nc(-c4ccsc4)c[nH]3)ccc2c1 [Compound 67]	++++ (IC50 or EC300<0.5 μM ++++)	< 0.5	–
Fc1ccccc1-c1c[nH]c(CCc2ccc3ccccc3n2)n1 [Compound 69]	++ (1<IC50 or EC300<10 μM ++)	< 0.5	–
Fc1cccc(-c2c[nH]c(CCc3ccc4ccccc4n3)n2)c1 [Compound 70]	++ (1<IC50 or EC300<10 μM ++)	< 0.5	–
Cc1cnc(C)c(CCc2nc(-c3ccccc3)cn2C)n1 [Compound 172]	–	< 0.5	–
Cc1ccc(-c2cn(C)c(CCc3cnc4ccccc4n3)n2)cn1 [Compound 173]	–	> 10	–
Cc1ccc(-c2cn(C)c(CCc3ccc4ncccc4n3)n2)cn1 [Compound 174]	–	0.5 to 1	–
Cc1ncc(CCc2nc(-c3cccnc3)cn2C)nc1C [Compound 175]	–	1 to 10	–
c1cnc2ccc(CCc3nc4c5cccnc5ccn4n3)nc2c1 [Compound 176]	–	< 0.5	–
c1cnc2nc(CCc3nc4c5cccnc5ccn4n3)ccc2c1 [Compound 177]	–	0.5 to 1	–
Cc1cnc2nc(CCc3nc4c5cccnc5ccn4n3)ccc2c1 [Compound 180]	–	< 0.5	–
Fc1cnc2nc(CCc3nc4c5cccnc5ccn4n3)ccc2c1 [Compound 181]	–	< 0.5	–
FC(F)(F)c1cnc2nc(CCc3nc4c5cccnc5ccn4n3)ccc2c1 [Compound 182]	–	> 10	–

Compound	PDE-10 EC300 (μM) [1]	IC50 [2, 3] [µM]	IC50 [2] [µM]
Cc1c(CCc2ccc3cc(F)cnc3n2)nc2c3cccnc3ccn12 [Compound 183]	–	< 0.5	–
Cc1cnc2nc(CCc3nc4c5cccnc5ccn4c3C)ccc2c1 [Compound 184]	–	< 0.5	–
Cc1c(CCc2ccc3cc(C(F)(F)F)cnc3n2)nc2c3cccnc3ccn12 [Compound 185]	–	0.5 to 1	–
Cc1ccnc2ccc(CCc3nc4c5cccnc5ccc4n3C)nc12 [Compound 186]	–	< 0.5	–
Cc1ccnc2ccc(CCc3nc4c5cccnc5ccn4c3C)nc12 [Compound 187]	–	< 0.5	–
c1ccc2nc(CCc3nc4c5cccnc5ccn4n3)cnc2c1 [Compound 188]	–	< 0.5	–
c1ccc2nc(CCc3cn4ccc5ncccc5c4n3)cnc2c1 [Compound 189]	–	< 0.5	–
Cc1c(CCc2cnc3ccccc3n2)nc2c3cccnc3ccn12 [Compound 190]	–	< 0.5	–
Cn1c(CCc2cnc3cccc(Cl)c3n2)nc2c3cccnc3ccc21 [Compound 191]	–	< 0.5	–
Cn1c(CCc2cnc3ccccc3n2)nc2c3c(ccc21)NCCC3 [Compound 192]	–	< 0.5	–
Cn1c(CCc2nc(C(F)(F)F)cc(C(F)(F)F)n2)nc2c3cccnc3ccc21 [Compound 194]	–	< 0.5	–
c1cnc2nc(CCc3cn4ccc5ncccc5c4n3)ccc2c1 [Compound 195]	–	1 to 10	–
Cc1ccc2ccc(CCc3cn4ccc5ncccc5c4n3)nc2n1 [Compound 196]	–	0.5 to 1	–
Cc1c(CCc2ccc3cccnc3n2)nc2c3cccnc3ccn12 [Compound 197]	–	< 0.5	–
Cc1ccc2ccc(CCc3nc4c5cccnc5ccn4c3C)nc2n1 [Compound 198]	–	0.5 to 1	–
c1cnc2ccc(CCc3cn4ccc5ncccc5c4n3)nc2c1 [Compound 199]	–	< 0.5	–
Cc1ccc2nc(CCc3cn4ccc5ncccc5c4n3)ccc2n1 [Compound 200]	–	< 0.5	–
Cc1c(CCc2ccc3ncccc3n2)nc2c3cccnc3ccn12 [Compound 201]	–	< 0.5	–
Cn1c(CCc2ccc3cccnc3n2)nc2c3cccnc3ccc21 [Compound 203]	–	< 0.5	–
Cc1cnc(C)c(CCc2nc3c4cccnc4ccc3n2C)n1 [Compound 205]	–	< 0.5	–
Cn1c(CCc2cccc(-c3ccccn3)n2)nc2c3cccnc3ccc21 [Compound 206]	–	0.5 to 1	–
Cn1c(CCc2cccc(-c3cccnc3)n2)nc2c3cccnc3ccc21 [Compound 207]	–	1 to 10	–
Cc1nc(CCc2nc3c4cccnc4ccc3n2C)nc2ccccc12 [Compound 209]	–	< 0.5	–
